The values below are quoted from earlier work in patent US8278451B2, “Pseudoazulenyl nitrones” (The Florida International University Board of Trustees, priority 2006, dated 2012).

For data set [1], the system named is LPS-induced organ dysfunction and cytokine secretion. The settings on record: rats, LPS administered.
In data set [2] the test system is lifespan. The note with it: aged animal model, daily intraperitoneal injection, male and female.
Data set [3] deals with human diploid fibroblast cells. The settings on record: human diploid fibroblast cells in culture.
Data set [4] deals with age-related changes in cognitive performance. The note with it: aged rats, chronic treatment.
For data set [5] the following is noted: aqueous solution at pH 7 and 20° C.

Consider `CC1(C)Cc2ccccc2C=[N+]1[O-]` [MDL 101,002], for which, in data set [1], the LPS-induced leukopenia entry was “failed to prevent leukopenia”; the LPS-induced pulmonary edema result was “prevented pulmonary edema”; the LPS-induced thrombocytopenia entry is “partially reduced thrombocytopenia”; the “organ dysfunction and cytokine secretion induced by LPS” value is “reduces organ dysfunction and cytokine secretion”.
`CC(C)(C)[N+]([O-])=Cc1ccccc1` [PBN, alpha-phenyl-N-tert-butylnitrone]: the lifespan result in data set [2] is given as “remarkable extension of the lifespan”. In addition, the onset of senescence result in data set [3] was “effectively delayed the onset of senescence”. For the same compound, in data set [4], the “age-related changes in cognitive performance” value is “benefit (i.e., improve) age-related changes in cognitive performance”.
Consider `Cc1c(C)c2c(c(C)c1O)CC[C@@](C)(CCC[C@H](C)CCC[C@H](C)CCCC(C)C)O2` [vitamin E, alpha-tocopherol], for which, in data set [5], the “one-electron oxidative potential (vs. NHE)” value was 0.48 V. Moreover, the “age-related changes in cognitive performance” value in data set [4] is reported as “benefit (i.e., improve) age-related changes in cognitive performance”.
